Results from patent US20260232767A1, “INTERLEUKIN-23 RECEPTOR ANTAGONIST PEPTIDES FOR USE IN THE TREATMENT OF PSORIASIS” (Janssen Pharmaceutica NV, priority 2023, published 2026).

Test system: subjects with moderate-to-severe plaque psoriasis
Test: IGA score, Example 2
Format: in vivo, human
Description: Described below is a multicenter, long-term extension (LTE), double-blind, dose-ranging, parallel group interventional study in participants from Example 1 to evaluate the long-term efficacy and safety of the hydrochloride salt of the compound of Formula (I) for the treatment of moderate-to-severe plaque psoriasis. Patients from Example 1 continued to receive the same dose of the compound of Formula (I) for an additional 36-week treatment period with a 4-week safety follow up period after the last administration of the compound of Formula (I). Patients randomized to placebo in Example 1 received the compound of Formula (I) at a dose of 100 mg QD starting at Week 16 of Example 1 (FIG. 21).
Secondary endpoints included additional change from baseline of Example 1 in PASI, IGA, and PSSD at Week 52, including the proportions of subjects that achieved PAST 90, PAST 100, an IGA score of cleared (0) or minimal (1), PSSD symptoms score=0, and PSSD signs score=0.

[1] = Week 20, Placebo → 100 mg QD, N=35
[2] = Week 24, Placebo → 100 mg QD, N=35
[3] = Week 28, Placebo → 100 mg QD, N=35
[4] = Week 32, Placebo → 100 mg QD, N=35
[5] = Week 40, Placebo → 100 mg QD, N=35
[6] = Week 52, Placebo → 100 mg QD, N=35

## CC(=O)NCCCC[C@@H]1NC(=O)[C@H](Cc2c[nH]c3c(C)cccc23)NC(=O)[C@H]([C@@H](C)O)NC(=O)[C@H](CC(N)=O)NC(=O)[C@@H](NC(C)=O)C(C)(C)SSC(C)(C)[C@@H](C(=O)N[C@@H](Cc2ccc(OCCN)cc2)C(=O)N[C@@H](Cc2ccc3ccccc3c2)C(=O)NC2(C(=O)N[C@@H](CCC(=O)O)C(=O)N[C@@H](CC(N)=O)C(=O)N[C@@H](Cc3cccnc3)C(=O)N(C)CC(N)=O)CCOCC2)NC1=O [IL-23 receptor antagonist peptide, Ac-[Pen]*-N-T-[W(7-Me)]-[Lys(Ac)]-[Pen]*-Phe[4-(2-aminoethoxy)]-[2-Nal]-[THP]-E-N-[3-Pal]-Sarc-NH2 (*[Pen]-[Pen]* formdisulfidebond)]
Week 20, 100 mg QD, N=43
  IGA Score ≤2 (‘Mild’or better), subjects (%): (72.1%)
[1]
  IGA Score = 0 (‘Cleared’) or 1 (‘Minimal’), subjects (%): (28.6%)
  IGA Score = 0 (‘Cleared’), subjects (%): (5.7%)
  IGA Score ≤2 (‘Mild’or better), subjects (%): (71.4%)
Week 24, 25 mg BID, N=41
  IGA Score = 0 (‘Cleared’) or 1 (‘Minimal’), subjects (%): (39.0%)
  IGA Score = 0 (‘Cleared’), subjects (%): (19.5%)
  IGA Score ≤2 (‘Mild’or better), subjects (%): (75.6%)
Week 24, 25 mg QD, N=43
  IGA Score = 0 (‘Cleared’) or 1 (‘Minimal’), subjects (%): (37.2%)
  IGA Score = 0 (‘Cleared’), subjects (%): (16.3%)
  IGA Score ≤2 (‘Mild’or better), subjects (%): (67.4%)
Week 24, 50 mg QD, N=43
  IGA Score = 0 (‘Cleared’) or 1 (‘Minimal’), subjects (%): (60.5%)
  IGA Score = 0 (‘Cleared’), subjects (%): (32.6%)
  IGA Score ≤2 (‘Mild’or better), subjects (%): (81.4%)
Week 24, 100 mg BID, N=42
  IGA Score = 0 (‘Cleared’) or 1 (‘Minimal’), subjects (%): (73.8%)
  IGA Score = 0 (‘Cleared’), subjects (%): (38.1%)
  IGA Score ≤2 (‘Mild’or better), subjects (%): (78.6%)
Week 24, 100 mg QD, N=43
  IGA Score = 0 (‘Cleared’) or 1 (‘Minimal’), subjects (%): (65.1%)
  IGA Score = 0 (‘Cleared’), subjects (%): (23.3%)
  IGA Score ≤2 (‘Mild’or better), subjects (%): (76.7%)
[2]
  IGA Score = 0 (‘Cleared’) or 1 (‘Minimal’), subjects (%): (54.3%)
  IGA Score = 0 (‘Cleared’), subjects (%): (14.3%)
  IGA Score ≤2 (‘Mild’or better), subjects (%): (85.7%)
Week 28, 25 mg BID, N=41
  IGA Score = 0 (‘Cleared’) or 1 (‘Minimal’), subjects (%): (41.5%)
  IGA Score = 0 (‘Cleared’), subjects (%): (19.5%)
  IGA Score ≤2 (‘Mild’or better), subjects (%): (73.2%)
Week 28, 25 mg QD, N=43
  IGA Score = 0 (‘Cleared’) or 1 (‘Minimal’), subjects (%): (37.2%)
  IGA Score = 0 (‘Cleared’), subjects (%): (18.6%)
  IGA Score ≤2 (‘Mild’or better), subjects (%): (65.1%)
Week 28, 50 mg QD, N=43
  IGA Score = 0 (‘Cleared’) or 1 (‘Minimal’), subjects (%): (62.8%)
  IGA Score = 0 (‘Cleared’), subjects (%): (16.3%)
  IGA Score ≤2 (‘Mild’or better), subjects (%): (76.7%)
Week 28, 100 mg BID, N=42
  IGA Score = 0 (‘Cleared’) or 1 (‘Minimal’), subjects (%): (64.3%)
  IGA Score = 0 (‘Cleared’), subjects (%): (42.9%)
  IGA Score ≤2 (‘Mild’or better), subjects (%): (78.6%)
Week 28, 100 mg QD, N=43
  IGA Score = 0 (‘Cleared’) or 1 (‘Minimal’), subjects (%): (62.8%)
  IGA Score = 0 (‘Cleared’), subjects (%): (25.6%)
  IGA Score ≤2 (‘Mild’or better), subjects (%): (74.4%)
[3]
  IGA Score = 0 (‘Cleared’) or 1 (‘Minimal’), subjects (%): (60.0%)
  IGA Score = 0 (‘Cleared’), subjects (%): (17.1%)
  IGA Score ≤2 (‘Mild’or better), subjects (%): (85.7%)
Week 32, 25 mg BID, N=41
  IGA Score = 0 (‘Cleared’) or 1 (‘Minimal’), subjects (%): (46.3%)
  IGA Score = 0 (‘Cleared’), subjects (%): (22.0%)
  IGA Score ≤2 (‘Mild’or better), subjects (%): (73.2%)
Week 32, 25 mg QD, N=43
  IGA Score = 0 (‘Cleared’) or 1 (‘Minimal’), subjects (%): (39.5%)
  IGA Score = 0 (‘Cleared’), subjects (%): (18.6%)
  IGA Score ≤2 (‘Mild’or better), subjects (%): (60.5%)
Week 32, 50 mg QD, N=43
  IGA Score = 0 (‘Cleared’) or 1 (‘Minimal’), subjects (%): (58.1%)
  IGA Score = 0 (‘Cleared’), subjects (%): (30.2%)
  IGA Score ≤2 (‘Mild’or better), subjects (%): (79.1%)
Week 32, 100 mg BID, N=42
  IGA Score = 0 (‘Cleared’) or 1 (‘Minimal’), subjects (%): (66.7%)
  IGA Score = 0 (‘Cleared’), subjects (%): (40.5%)
  IGA Score ≤2 (‘Mild’or better), subjects (%): (78.6%)
Week 32, 100 mg QD, N=43
  IGA Score = 0 (‘Cleared’) or 1 (‘Minimal’), subjects (%): (67.4%)
  IGA Score = 0 (‘Cleared’), subjects (%): (25.6%)
  IGA Score ≤2 (‘Mild’or better), subjects (%): (76.7%)
[4]
  IGA Score = 0 (‘Cleared’) or 1 (‘Minimal’), subjects (%): (65.7%)
  IGA Score = 0 (‘Cleared’), subjects (%): (20.0%)
  IGA Score ≤2 (‘Mild’or better), subjects (%): (80.0%)
Week 40, 25 mg BID, N=41
  IGA Score = 0 (‘Cleared’) or 1 (‘Minimal’), subjects (%): (31.7%)
  IGA Score = 0 (‘Cleared’), subjects (%): (17.1%)
  IGA Score ≤2 (‘Mild’or better), subjects (%): (68.3%)
Week 40, 25 mg QD, N=43
  IGA Score = 0 (‘Cleared’) or 1 (‘Minimal’), subjects (%): (41.9%)
  IGA Score = 0 (‘Cleared’), subjects (%): (11.6%)
  IGA Score ≤2 (‘Mild’or better), subjects (%): (67.4%)
Week 40, 50 mg QD, N=43
  IGA Score = 0 (‘Cleared’) or 1 (‘Minimal’), subjects (%): (58.1%)
  IGA Score = 0 (‘Cleared’), subjects (%): (23.3%)
  IGA Score ≤2 (‘Mild’or better), subjects (%): (79.1%)
Week 40, 100 mg BID, N=42
  IGA Score = 0 (‘Cleared’) or 1 (‘Minimal’), subjects (%): (66.7%)
  IGA Score = 0 (‘Cleared’), subjects (%): (40.5%)
  IGA Score ≤2 (‘Mild’or better), subjects (%): (78.6%)
Week 40, 100 mg QD, N=43
  IGA Score = 0 (‘Cleared’) or 1 (‘Minimal’), subjects (%): (65.1%)
  IGA Score = 0 (‘Cleared’), subjects (%): (27.9%)
  IGA Score ≤2 (‘Mild’or better), subjects (%): (69.8%)
[5]
  IGA Score = 0 (‘Cleared’) or 1 (‘Minimal’), subjects (%): (57.1%)
  IGA Score = 0 (‘Cleared’), subjects (%): (31.4%)
  IGA Score ≤2 (‘Mild’or better), subjects (%): (74.3%)
Week 52, 25 mg BID, N=41
  IGA Score = 0 (‘Cleared’) or 1 (‘Minimal’), subjects (%): (46.3%)
  IGA Score = 0 (‘Cleared’), subjects (%): (19.5%)
  IGA Score ≤2 (‘Mild’or better), subjects (%): (63.4%)
Week 52, 25 mg QD, N=43
  IGA Score = 0 (‘Cleared’) or 1 (‘Minimal’), subjects (%): (37.2%)
  IGA Score = 0 (‘Cleared’), subjects (%): (14.0%)
  IGA Score ≤2 (‘Mild’or better), subjects (%): (55.8%)
Week 52, 50 mg QD, N=43
  IGA Score = 0 (‘Cleared’) or 1 (‘Minimal’), subjects (%): (60.5%)
  IGA Score = 0 (‘Cleared’), subjects (%): (23.3%)
  IGA Score ≤2 (‘Mild’or better), subjects (%): (79.1%)
Week 52, 100 mg BID, N=42
  IGA Score = 0 (‘Cleared’) or 1 (‘Minimal’), subjects (%): (73.8%)
  IGA Score = 0 (‘Cleared’), subjects (%): (42.9%)
  IGA Score ≤2 (‘Mild’or better), subjects (%): (76.2%)
Week 52, 100 mg QD, N=43
  IGA Score = 0 (‘Cleared’) or 1 (‘Minimal’), subjects (%): (60.5%)
  IGA Score = 0 (‘Cleared’), subjects (%): (30.2%)
  IGA Score ≤2 (‘Mild’or better), subjects (%): (67.4%)
[6]
  IGA Score = 0 (‘Cleared’) or 1 (‘Minimal’), subjects (%): (65.7%)
  IGA Score = 0 (‘Cleared’), subjects (%): (31.4%)
  IGA Score ≤2 (‘Mild’or better), subjects (%): (77.1%)
